# Laboratory results published in US20160177259A1, “[…]” (Evonik Degussa GmbH, priority 2014, published 2016).
# Tested on: Clostridium ljungdahlii
# Assay: Autotrophic production of ethanol and acetate in carbonate buffer on synthesis gas with varying L-cysteine HCl (Example 1)
# Type: cell-based
# Description: For the production, anaerobic carbonate buffer (adjusted with KOH 1.4 g/L) was used. The only addition to the buffer was L-cysteine HCl at different concentrations.
# For identical autotrophic productions, 500 mL septum bottles were filled with 100 mL carbonate buffer and shaken at 150 min^−1 in an open shaking water bath shaker Innova 3100 by New Brunswick Scientific. The reactions were carried out at 37° C. with manual control of the pH. Once the pH dropped below 5.5, KOH was replenished from a stock solution of 140 g/L. In the present experiments the pH in both reactors were checked at the following points in time 50.3 h, 73.3 h and corrected by the addition of each 1.4 g/L KOH manually.
# The reactors were inoculated with a synthesis gas mixture of 67% H2 and 33% CO2 and pressure of 0.8 bar applied. To replenish the depleted gas, the gas above the reactors was replaced once a day and again the pressure brought to 0.8 bars.
# The reactor was started by seeding autotrophic grown cells at an OD of 0.2. The preculture was carried out continuously in a 1 L bottle with 500 mL complex medium. The complex medium consisting of 1 g/lNH4Cl, 0.1 g/l KCl, 0.2 g/l MgSO4 ×7 H2O, 0.8 g/l NaCl, 0.1 g/l KH2PO4, 20 mg/l CaCl2 ×2 H2O, 20 g/l MES, 1 g/l yeast extract, 0.4 g/L L-Cysteine-HC1, 20 mg/l nitrilotriacetic acid, 10 mg/l MnSO4×H2O, 8 mg/l (NH4)2Fe(SO4)2×6 H2O, 2 mg/l CoCl2×6 H2O, 2 mg/l ZnSO4 33 7 H2O, 0.2 mg/l CuCl 2 33 2 H2O, 0.2 mg/l Na2MoO4×2 H2O, 0.2 mg/l NiCl2×6 H2O, 0.2 mg/l Na2SeO4, 0.2 mg/l Na2WO4×2 H2O, 20 μg/l d-Biotin, 20 μg/l folic acid, 100 μg/l pyridoxine HCl, 50μg/l thiamine-HCl×H2O, 50 μg l of riboflavin, 50 μg/l nicotinic acid, 50 μg/l Ca-pantothenate, 1 μg/l vitamin B12, 50μg/l p-aminobenzoate, 50 μg/l lipoic acid. The culture was then gassed continuously with synthesis gas (67% H2, 33% CO2) at a flow rate of 3 l/h over a filter with pore size 10 microns. The cells were in late log phase growth at an OD of 0.37 and where anaerobically centrifuged (4500 rpm, 4300 g, 20° C., 10 min). The supernatant was discarded and the cell pellet resuspended in 10 ml carbonate buffer. The prepared cells were then used to inoculate the actual tests.
# When sampling each 5 ml sample was removed for determination of OD600, pH and the product spectrum. The determination of the product concentration was performed using quantitative 1H-NMR spectroscopy. As an internal quantification standard sodium trimethylsilylpropionate was used (T(M)SP).
# [1] = reactor 1, 0.1 g/L L-Cysteine-HCl, 150 min-1, 0.0 h
# [2] = reactor 1, 0.1 g/L L-Cysteine-HCl, 150 min-1, 24.5 h
# [3] = reactor 1, 0.1 g/L L-Cysteine-HCl, 150 min-1, 50.3 h
# [4] = reactor 1, 0.1 g/L L-Cysteine-HCl, 150 min-1, 73.3 h
# [5] = reactor 1, 0.1 g/L L-Cysteine-HCl, 150 min-1, 92.3 h
# [6] = reactor 2, 0.4 g/L L-Cysteine-HCl, 150 min-1, 0.0 h
# [7] = reactor 2, 0.4 g/L L-Cysteine-HCl, 150 min-1, 24.5 h
# [8] = reactor 2, 0.4 g/L L-Cysteine-HCl, 150 min-1, 50.3 h
# [9] = reactor 2, 0.4 g/L L-Cysteine-HCl, 150 min-1, 73.3 h
# [10] = reactor 2, 0.4 g/L L-Cysteine-HCl, 150 min-1, 92.3 h
compound,measurement,setting,value
"Cl.N[C@@H](CS)C(=O)O [L-Cysteine-HCl, L-cysteine hydrochloride]",concentrations of ethanol and acetate,"0.1 g/L compared with 0.4 g/L L-cysteine-HCl, after 92.3 h",higher
same,Acetate (NMR),[1],13 mg/L
same,Ethanol (NMR),[1],6 mg/L
same,OD600,[1],0.25
same,Acetate (NMR),[2],1418 mg/L
same,Ethanol (NMR),[2],19 mg/L
same,OD600,[2],0.25
same,Δp,[2],0.6 bar
same,Acetate (NMR),[3],2556 mg/L
same,Ethanol (NMR),[3],130 mg/L
same,OD600,[3],0.30
same,Δp,[3],0.6 bar
same,OD600,[4],0.30
same,Δp,[4],0.6 bar
same,Acetate (NMR),[5],6960 mg/L
same,Ethanol (NMR),[5],321 mg/L
same,OD600,[5],0.26
same,Δp,[5],0.4 bar
same,total gas consumption,"reactor 1 with 0.1 g/L compared with reactor with 0.4 g/L L-cysteine-HCl, over 92.3 h",higher
same,Acetate (NMR),[6],15 mg/L
same,Ethanol (NMR),[6],8 mg/L
same,OD600,[6],0.24
same,Acetate (NMR),[7],2331 mg/L
same,Ethanol (NMR),[7],27 mg/L
same,OD600,[7],0.23
same,Δp,[7],0.6 bar
same,Acetate (NMR),[8],3197 mg/L
same,Ethanol (NMR),[8],128 mg/L
same,OD600,[8],0.26
same,Δp,[8],0.5 bar
same,OD600,[9],0.22
same,Δp,[9],0.3 bar
same,Acetate (NMR),[10],5067 mg/L
same,Ethanol (NMR),[10],150 mg/L
same,OD600,[10],0.22
same,Δp,[10],0.3 bar
